# Source: ChEMBL document CHEMBL5226329, “Synthetic and computational efforts towards the development of peptidomimetics and small-molecule SARS-CoV 3CLpro inhibitors” (Bioorg Med Chem, 2021)
# Where a SMILES comes first, the peptide text is derived from it. The star is where a group is joined. Cbz = O=C(OCc1ccccc1)*; CF3 = FC(F)(F)*
# Key:
# [1] = Inhibition of recombinant Hepatitis A virus proteinase 3C using Ac-Leu-Ala-Ala-OH as a substrate expressed in Escherichia coli incubated for 15 mins by SDS-PAGE assay; set-up: species or system Hepatovirus A
# [2] = Inhibition of Severe acute respiratory syndrome coronavirus proteinase 3C using Dabcy-KTSAVLQSGFRKME-Edans peptide as a substrate; set-up: species or system Severe acute respiratory syndrome-related coronavirus
# [3] = Inhibition of Severe acute respiratory syndrome coronavirus proteinase 3C using EDANS-Val-Asn-Ser-Thr-Leu-Gln-Ser-Gly-Leu-Arg-Lys-(Dabcyl)-Met substrate incubated for 1 hr by fluorescence based assay; set-up: species or system Severe acute respiratory syndrome-related coronavirus
# [4] = Inhibition of Severe acute respiratory syndrome coronavirus proteinase 3C using Dabcy-KTSAVLQSGFRKME-Edans peptide as a substrate incubated for 10 mins by fluorescence based assay; set-up: species or system Severe acute respiratory syndrome-related coronavirus
# [5] = Inhibition of Severe acute respiratory syndrome coronavirus proteinase 3C by FRET assay; set-up: species or system Severe acute respiratory syndrome-related coronavirus
# [6] = Inhibition of Severe acute respiratory syndrome coronavirus proteinase 3C using Abz-SVTLQSG-Tyr(NO2)R peptide as a substrate; set-up: species or system Severe acute respiratory syndrome-related coronavirus
# [7] = Inhibition of Severe acute respiratory syndrome coronavirus proteinase 3C using (Dabcyl-KTSAVLQSGFRKME-Edans peptide as a substrate assessed as inhibition constant by fluorescence based assay; set-up: species or system Severe acute respiratory syndrome-related coronavirus
# [8] = Inhibition of Severe acute respiratory syndrome coronavirus proteinase 3C using (Dabcyl-KTSAVLQSGFRKME-Edans peptide as a substrate by fluorescence based assay; set-up: species or system Severe acute respiratory syndrome-related coronavirus
# [9] = Inhibition of Severe acute respiratory syndrome coronavirus proteinase 3C assessed as inhibition constant by spectrophotometry assay; set-up: species or system Severe acute respiratory syndrome-related coronavirus
smiles,measurement,setting,value
CC(=O)N[C@@H](CC(C)C)C(=O)N[C@@H](C)C(=O)N[C@@H](C)C(=O)N[C@@H](CCC(=O)N(C)C)C(=O)Cn1[nH]c(=O)c2ccccc2c1=O,IC50,[1],13000 nM
O=C[C@H](C[C@@H]1CCNC1=O)NC(=O)[C@H](Cc1ccccc1)NC(=O)/C=C/c1ccc(Cl)cc1F,IC50,[2],200 nM
CN(C)CCCSc1ccccc1NC(=O)/C=C/c1ccccc1 [CINANSERIN],IC50,[3],19000 nM
O=C(/C=C/c1ccccc1)Nc1ccccc1SC(=O)/C=C/c1ccccc1,IC50,[4],1060 nM
same,IC50,[5],1060 nM
CC(=O)N[C@H](C(=O)N[C@H](C(=O)N[C@@H](CC(C)C)C(=O)N[C@@H](C[C@@H]1CCNC1=O)C(=O)Cn1[nH]c(=O)c2c([N+](=O)[O-])cccc2c1=O)C(C)OCc1ccccc1)C(C)C (stereo not given in full),IC50,[6],600 nM
CC(=O)N[C@@H](CC(C)C)C(=O)N[C@@H](C)C(=O)N[C@@H](C)C(=O)N[C@@H](C[C@@H]1CCNC1=O)C(=O)Cn1[nH]c(=O)c2c([N+](=O)[O-])cccc2c1=O,IC50,[1],1600 nM
CN(C)c1ccc(C(=O)N[C@@H](Cc2ccccc2)C(=O)Nc2ccc([N+](=O)[O-])cc2Cl)cc1,Ki,[7],30 nM
same,IC50,[8],60 nM
CC(C)C[C@H](NC(=O)[C@@H](NC(=O)OCc1ccccc1)C(C)C)C(=O)N[C@@H](CCC(=O)O)C(=O)C(F)(F)F (Cbz-Val-Leu-Glu-CF3),Ki,[9],116000 nM
